# From US20240307348A1, “COMPOSITION FOR PREVENTING AND TREATING MUSCLE DISEASE, IMPROVING MUSCLE FUNCTION OR ENHANCING MOTOR PERFORMANCE COMPRISING HYDRANGENOL OR HYDRANGEA EXTRACT AS ACTIVE INGREDIENT” (COSMAXBIO CO., LTD., priority 2018, published 2024)
# Assays:
# [1] = tested on: C2C12 cells; experiment: Change in muscle-related gene expression (qRT-PCR) upon treatment with hydrangenol or Hydrangea extract; type: cell-based; conditions: C2C12 cells differentiated 5 days, 1 hour or 24 hours
# Description: Each sample obtained in Examples 1 and 2 was analyzed in regards to its effects on the change in gene expression involved in the gain of muscle mass and the mitochondrial biogenesis and electron transport chain (ETC). For this experiment, C2C12 cells were differentiated for 5 days and then treated with the sample of Example 1 (25 μg/ml) or Example 2 (2.5 μg/ml) for 1 hour or 24 hours, respectively. Then, Trizol was used to extract RNA from the cell, and cDNA was synthesized from the RNA (cDNA synthesis kit, Bio-Rad). Finally, a realtime PCR (qRT-PCR) was performed (Viia7, […] Biosystems) using the oligomers of Table 1 as primers.
# In the experimental example, the extract of Hydrangea serrata is indicated as S; the extract of Hydrangea macrophylla as M; and hydrangenol as H. “0” means a control that was treated with vehicle.
# [2] = tested on: C2C12 cells; experiment: Change in muscle-related protein expression (primary antibodies) upon treatment with hydrangenol or Hydrangea extract; type: cell-based; conditions: C2C12 cells differentiated 5 days; Example 1 25 ug/ml or Example 2 2.5 ug/ml; 1 hour or 24 hours; FIG. 9
# Description: Each sample obtained in Examples 1 and 2 was analyzed in regards to its effects on the change in protein expression involved in the prevention of muscle diseases, the improvement of muscle functions, and the promotion of motor performance. For this experiment, C2C12 cells were differentiated for 5 days and then treated with the sample of Example 1 (25 ug/ml) or Example 2 (2.5 ug/ml) for 1 hour or 24 hours, respectively. Then, the cell was broken down with a modified LIPA buffer, and 20 ug of each sample was used for analysis. The primary antibodies of p-ERK (9101S: Cell Signaling), p-mTOR (ab109268, Abcam), mTOR (2972, Cell Signaling), p-p70S6K (9234, Cell Signaling), p-AMPK (4186, Cell Signaling), PGC1a (ab54481, Abcam), and ß-actin (A5316, Sigma) were used for the analysis.
# [3] = Example 1 25 μg/ml or Example 2 2.5 μg/ml, FIG. 8
smiles,measurement,setting,value
"O=C1OC(c2ccc(O)cc2)Cc2cccc(O)c21 (centres unmarked) [Example 2, 8-hydroxy-3-(4-hydroxyphenyl)-3,4-dihydroisochromen-1-one]",expression of Myogenin,[1]; [3],promoted
same,gene (mRNA) expression of PPARα,[1]; [3],increase
same,gene expression of MyoD,[1]; [3],promoted
same,gene expression of PGC1α,[1]; [3],activate
same,gene expression of PPARδ,[1]; [3],activate
same,gene expression of SIRT1,[1]; [3],increased
same,amount of expression for most of genes shown in FIG. 8,[1]; Example 2 2.5 μg/ml,regulated
same,activity of p-AMPK,[2],increased
same,phosphorylation of ERK (MAPK),[2],through the phosphorylation of ERK
same,phosphorylation of mTOR,[2],activated
same,protein expression of PGC1α,[2],increased
